# Experimental data as given in patent publication US20230026611A1, “ARYL HETEROCYCLIC COMPOUNDS AS Kv1.3 POTASSIUM SHAKER CHANNEL BLOCKERS” (D. E. Shaw Research, LLC, priority 2019, published 2023).
# Read-outs that look alike come from different tables or passages of the source.
# Target: T1, Kv1.3 potassium channel (Homo sapiens, UniProt P22001)
# T1 construct: expressed in transfected cells
# Test: Kv1.3 potassium channel blocker activity, automated whole-cell patch clamp (Patchliner) in CHO-K1 cells stably expressing Kv1.3
# Assay type: cell-based
# Method: Example 82. Evaluation of Kv1.3 potassium channel blocker activities
# This assay is used to evaluate the disclosed compounds' activities as Kv1.3 potassium channel blockers.
# CHO-K1 cells stably expressing Kv1.3 were grown in DMEM containing 10% heat-inactivated FBS, 1 mM sodium pyruvate, 2 mM L-glutamine, and G418 (500 μg/ml).
# All compounds were dissolved in DMSO at 30 mM.
# The currents were evoked by applying 100 ms depolarizing pulses from −90 mV (holding potential) to +40 mV were applied with 0.1 Hz frequency. […] 10-second breaks were used between pulse trains (see Table A below).
# Data were sampled at 10 kHz without filtering. Passive leak currents were subtracted online using a P/4 procedure (HEKA Elektronik Dr. Schulze GmbH). […] Total compound incubation time before the next pulse train was not longer than 10 seconds. Peak current inhibition was observed during compound equilibration.
# [1] = CHO-K1 cells stably expressing Kv1.3, patch clamp, current inhibition, read-out: Kv1.3 IC50
# T1 sequence (P22001 whole entry): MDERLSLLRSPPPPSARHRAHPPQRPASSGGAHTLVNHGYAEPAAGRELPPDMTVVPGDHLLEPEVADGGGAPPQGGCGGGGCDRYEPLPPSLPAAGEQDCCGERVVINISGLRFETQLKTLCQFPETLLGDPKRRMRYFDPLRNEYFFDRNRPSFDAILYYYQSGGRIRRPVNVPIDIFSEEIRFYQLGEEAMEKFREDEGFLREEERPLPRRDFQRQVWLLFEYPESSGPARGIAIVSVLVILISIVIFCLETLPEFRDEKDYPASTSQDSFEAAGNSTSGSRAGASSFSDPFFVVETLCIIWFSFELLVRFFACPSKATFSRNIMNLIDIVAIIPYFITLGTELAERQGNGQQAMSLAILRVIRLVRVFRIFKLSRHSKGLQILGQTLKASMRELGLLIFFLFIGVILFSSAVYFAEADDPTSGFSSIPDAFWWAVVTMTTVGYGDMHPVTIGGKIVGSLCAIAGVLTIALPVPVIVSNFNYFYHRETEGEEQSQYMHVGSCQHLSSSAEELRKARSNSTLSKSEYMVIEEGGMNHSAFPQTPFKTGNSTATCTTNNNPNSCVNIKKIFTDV
smiles,measurement,setting,value
"Oc1cc(Cl)c(Cl)cc1[C@@H]1CCNC[C@H]1O (relative stereo) [Compound 7, (3R,4R)-rel-4-(4,5-dichloro-2-hydroxyphenyl)piperidin-3-ol]",IC50,[1],< 10 µM
"NC[C@H]1CNCC[C@H]1c1cc(Cl)c(Cl)cc1O (relative stereo) [Compound 47, (3R,4S)-rel-2-[3-(aminomethyl)piperidin-4-yl]-4,5-dichlorophenol]",IC50,[1],< 30 µM
"NC[C@@H]1CNCC[C@H]1c1cc(Cl)c(Cl)cc1O (relative stereo) [Compound 48, (3R,4R)-rel-2-[3-(aminomethyl)piperidin-4-yl]-4,5-dichlorophenol]",IC50,[1],< 10 µM
"N[C@@H]1CNCC[C@H]1c1cc(Cl)c(Cl)cc1O (relative stereo) [Compound 49, (3R,4R)-rel-2-(3-aminopiperidin-4-yl)-4,5-dichlorophenol]",IC50,[1],< 10 µM
"NC(=O)[C@H]1CNCC[C@@H]1c1cc(Cl)c(Cl)cc1O (relative stereo) [Compound 50, (3R,4S)-rel-4-(4,5-dichloro-2-hydroxyphenyl)piperidine-3-carboxamide]",IC50,[1],< 10 µM
"N[C@H]1CNCC[C@H]1c1cc(Cl)c(Cl)cc1O (relative stereo) [Compound 51, (3R,4S)-rel-2-(3-aminopiperidin-4-yl)-4,5-dichlorophenol]",IC50,[1],< 10 µM
"NC(=O)[C@@H]1CNC[C@H]1c1cc(Cl)c(Cl)cc1O (relative stereo) [Compound 52, (3R,4S)-rel-4-(4,5-dichloro-2-hydroxyphenyl)pyrrolidine-3-carboxamide]",IC50,[1],< 10 µM
"COC(=O)[C@@H]1CNC[C@H]1c1cc(Cl)c(Cl)cc1O (relative stereo) [Compound 53, (3R,4S)-rel-methyl 4-(4,5-dichloro-2-hydroxyphenyl)pyrrolidine-3-carboxylate]",IC50,[1],< 10 µM
"O=C([C@H]1C[C@H](c2c(O)ccc(Cl)c2Cl)CCN1)N1CCOCC1 (relative stereo) [Compound 76, (2R,4R)-rel-3,4-dichloro-2-[2-(morpholine-4-carbonyl)piperidin-4-yl]phenol]",IC50,[1],< 10 µM
"CN(C)C(=O)[C@H]1C[C@@H](c2c(O)ccc(Cl)c2Cl)CCN1 (relative stereo) [Compound 77, (2R,4S)-rel-4-(2,3-dichloro-6-hydroxyphenyl)-N,N-dimethylpiperidine-2-carboxamide]",IC50,[1],< 10 µM
"O=C([C@H]1C[C@@H](c2c(O)ccc(Cl)c2Cl)CCN1)N1CCOCC1 (relative stereo) [Compound 80, (2R,4S)-rel-3,4-dichloro-2-[2-(morpholine-4-carbonyl)piperidin-4-yl]phenol]",IC50,[1],< 10 µM
"CN(C)C(=O)[C@H]1C[C@H](c2c(O)ccc(Cl)c2Cl)CCN1 (relative stereo) [Compound 82, (2R,4R)-rel-4-(2,3-dichloro-6-hydroxyphenyl)-N,N-dimethylpiperidine-2-carboxamide]",IC50,[1],< 10 µM
"Nc1nnc([C@H]2C[C@@H](c3c(O)ccc(Cl)c3Cl)CCN2)o1 (relative stereo) [Compound 103, 2-((2R,4S)-rel-2-(5-amino-1,3,4-oxadiazol-2-yl)piperidin-4-yl)-3,4-dichlorophenol]",IC50,[1],< 10 µM
"OC[C@H]1C[C@@H](c2cc(Cl)c(Cl)cc2O)CCN1 (single isomer, unassigned) [Compound 34]",IC50,[1],< 10 µM
"OC[C@@H]1C[C@H](c2cc(Cl)c(Cl)cc2O)CCN1 (single isomer, unassigned) [Compound 35]",IC50,[1],< 10 µM
"NC(=O)[C@@H]1CNCC[C@@H]1c1cc(Cl)c(Cl)cc1O (single isomer, unassigned) [Compound 56]",IC50,[1],< 10 µM
"NC(=O)[C@H]1CNCC[C@H]1c1cc(Cl)c(Cl)cc1O (single isomer, unassigned) [Compound 58]",IC50,[1],< 1 µM
"Oc1cc(Cl)c(Cl)cc1C1(O)CCNCC1 (single isomer, unassigned) [Compound 59, 4-(4,5-dichloro-2-hydroxyphenyl)piperidin-4-ol]",IC50,[1],< 10 µM
"O=C(NC1CNC1)[C@H]1CCC(c2c(O)ccc(Cl)c2Cl)N1 (single isomer, unassigned) [Compound 117]",IC50,[1],< 30 µM
"O=C(NC1CNC1)[C@@H]1CC[C@H](c2c(O)ccc(Cl)c2Cl)N1 (single isomer, unassigned) [Compound 119]",IC50,[1],< 10 µM
"O=C(NC1CNC1)[C@@H]1CC[C@@H](c2c(O)ccc(Cl)c2Cl)N1 (single isomer, unassigned) [Compound 120]",IC50,[1],< 10 µM
"O=C(NC1CNC1)C1CN[C@@H](c2c(O)ccc(Cl)c2Cl)C1 (single isomer, unassigned) [Compound 121]",IC50,[1],< 1 µM
"O=C(NC1CNC1)[C@@H]1CN[C@H](c2c(O)ccc(Cl)c2Cl)C1 (single isomer, unassigned) [Compound 123]",IC50,[1],< 10 µM
"O=C(NC1CNC1)[C@H]1CN[C@H](c2c(O)ccc(Cl)c2Cl)C1 (single isomer, unassigned) [Compound 124]",IC50,[1],< 1 µM
"Oc1cc(Cl)c(Cl)cc1[C@@H]1C[C@H]2CC[C@@H](C1)N2 (single isomer, unassigned; isomer 1) [Compound 15, 2-[8-azabicyclo[3.2.1]octan-3-yl]-4,5-dichlorophenol isomer 1]",IC50,,< 10 µM
"Oc1cc(Cl)c(Cl)cc1[C@H]1C[C@H]2CC[C@@H](C1)N2 (single isomer, unassigned; isomer 2) [Compound 11, 2-[8-azabicyclo[3.2.1]octan-3-yl]-4,5-dichlorophenol isomer 2]",IC50,,< 10 µM
"NC(=O)C1CNC[C@H]1c1cc(Cl)c(Cl)cc1O (stereo in doubt) [Compound 64, (3R,4R)-rel-4-(4,5-dichloro-2-hydroxyphenyl)pyrrolidine-3-carboxamide]",IC50,[1],< 10 µM
"CC1(c2cc(Cl)c(Cl)cc2O)CCNCC1 [Compound 1, 4,5-dichloro-2-(4-methylpiperidin-4-yl)phenol]",IC50,[1],< 10 µM
"CC(=O)N1CCC(c2cc(Cl)c(Cl)cc2O)CC1 [Compound 10, 1-[4-(4,5-dichloro-2-hydroxyphenyl)piperidin-1-yl]ethan-1-one]",IC50,[1],< 10 µM
"N#CC1(c2cc(Cl)c(Cl)cc2O)CCNCC1 [Compound 13, 4-(4,5-dichloro-2-hydroxyphenyl)piperidine-4-carbonitrile]",IC50,,< 10 µM
"Oc1cc(Cl)c(Cl)cc1C1=CC2CCC(C1)N2 (centres unmarked) [Compound 17, 2-[8-azabicyclo[3.2.1]oct-2-en-3-yl]-4,5-dichlorophenol]",IC50,,< 10 µM
"Oc1cc(Cl)c(Cl)cc1C1=CCCNC1 [Compound 19, 4,5-dichloro-2-(1,2,3,6-tetrahydropyridin-5-yl)phenol]",IC50,[1],< 10 µM
"Oc1cc(Cl)c(Cl)cc1C1=CCNC1 [Compound 20, 4,5-dichloro-2-(2,5-dihydro-1H-pyrrol-3-yl)phenol]",IC50,[1],< 10 µM
"Oc1cc(Cl)c(Cl)cc1C1CNC1 [Compound 22, 2-(azetidin-3-yl)-4,5-dichlorophenol]",IC50,[1],< 10 µM
"OCC1(c2cc(Cl)c(Cl)cc2O)CCNCC1 [Compound 26, 4,5-dichloro-2-[4-(hydroxymethyl)piperidin-4-yl]phenol]",IC50,[1],< 10 µM
"Oc1cc(C(F)(F)F)c(Cl)cc1C1CCNCC1 [Compound 29, 4-chloro-2-(piperidin-4-yl)-5-(trifluoromethyl)phenol]",IC50,[1],< 10 µM
"NC1(CO)CCN(c2cc(Cl)c(Cl)cc2O)CC1 [Compound 33, 2-[4-amino-4-(hydroxymethyl)piperidin-1-yl]-4,5-dichlorophenol]",IC50,[1],< 10 µM
"Oc1cc(Cl)c(Cl)cc1N1CCCNCC1 [Compound 37, 4,5-dichloro-2-(1,4-diazepan-1-yl)phenol]",IC50,[1],< 10 µM
"Oc1cc(C(F)F)c(Cl)cc1C1CCNCC1 [Compound 41, 4-chloro-5-(difluoromethyl)-2-(piperidin-4-yl)phenol]",IC50,[1],< 10 µM
"Oc1cc(Cl)c(Cl)c(Cl)c1C1=CCNCC1 [Compound 46, 3,4,5-trichloro-2-(1,2,3,6-tetrahydropyridin-4-yl)phenol]",IC50,[1],< 10 µM
"Oc1cc(Cl)c(Cl)cc1C1CCNCC1n1ccnn1 (centres unmarked) [Compound 62, 4,5-dichloro-2-[3-(1H-1,2,3-triazol-1-yl)piperidin-4-yl]phenol]",IC50,[1],< 10 µM
"Oc1cccc(Cl)c1C1CCNCC1 [Compound 66, 3-chloro-2-(piperidin-4-yl)phenol]",IC50,[1],< 10 µM
"Oc1ccc(F)c(Cl)c1C1CCNCC1 [Compound 68, 3-chloro-4-fluoro-2-(piperidin-4-yl)phenol]",IC50,[1],< 10 µM
"Oc1ccc(C2CC2)c(Cl)c1C1CCNCC1 [Compound 69, 3-chloro-4-cyclopropyl-2-(piperidin-4-yl)phenol]",IC50,[1],< 30 µM
"Cc1ccc(O)c(C2CCNCC2)c1Cl [Compound 71, 3-chloro-4-methyl-2-(piperidin-4-yl)phenol]",IC50,[1],< 30 µM
"O=C(C1CC(c2c(O)ccc(Cl)c2Cl)CCN1)N1CCNCC1 (centres unmarked) [Compound 75, 3,4-dichloro-2-[2-(piperazine-1-carbonyl)piperidin-4-yl]phenol]",IC50,[1],< 10 µM
"Oc1ccc(Br)c(Cl)c1C1CCNCC1 [Compound 81, 4-bromo-3-chloro-2-(piperidin-4-yl)phenol]",IC50,[1],< 1 µM
"CC1(C(N)=O)CC(c2c(O)ccc(Cl)c2Cl)CCN1 (centres unmarked) [Compound 83, 4-(2,3-dichloro-6-hydroxyphenyl)-2-methylpiperidine-2-carboxamide]",IC50,[1],< 10 µM
"O=C(O)C1CC(c2c(O)ccc(Cl)c2Cl)CCN1 (centres unmarked) [Compound 84, 4-(2,3-dichloro-6-hydroxyphenyl)piperidine-2-carboxylic acid]",IC50,[1],< 10 µM
"O=C1NCCC12CC(c1c(O)ccc(Cl)c1Cl)CCN2 (centres unmarked) [Compound 87, 9-(2,3-dichloro-6-hydroxyphenyl)-2,6-diazaspiro[4.5]decan-1-one]",IC50,[1],< 10 µM
